From patent US10251865B2, “Method of activating regulatory T cells with alpha-2B adrenergic receptor agonists” (Allergan, Inc., priority 2010, dated 2019) come the findings set out here.

Common to all, as to type: in vivo
The subject of assay [1] is regulatory T cells and immune cells in the CNS. Kind of assay: Flow cytometry of immune cells and Treg cells in PLP-induced EAE mice. The text has this: The mouse model of experimental autoimmune encephalomyelitis (EAE) has been used extensively to understand the mechanisms underlying the immunopathogenesis of MS. […] Components of the immune system including T cells, macrophage, and antibodies are important contributors to myelin destruction in EAE mice. Further, inflammation also gives rise to multifocal regions demyelination culminating in clinical signs of neurologic dysfunction that include loss of tail tone, abnormal gait and partial-to-complete hind-limb paralysis. PLP-induced EAE model offers the ability to simultaneously investigate the pathogenic mechanisms of CNS inflammation and demyelination and MS-associated pain, a multi-targeted concept that we have optimized here at Allergan. Using sterile technique proteolipid protein myelin peptide (PLP) (139-159: […]) is mixed 1:1 with incomplete Freund's adjuvant (IFA) (Final concentration of 2 mg/ml PLP). 8-10 week old Female SJL mice (Taconic) are injected subcutaneously with 100 μl PLP/IFA (200 μg PLP/injection) on both the right and left hind-flank (day 0) using a 26G needle. […]
Mice were routinely visually scored for behavioral abnormalities on a scale from 0-5; 0-no abnormality, 1-partial loss of tail tonicity (partial limp tail), 2-loss of tail tonicity and hind-limb weakness 3-unsteady gait and partial hind-limb paralysis, 4-complete hind-limb paralysis and 5-moribund or dead. […] Allodynia was measured by the Von Frey hairs method as described earlier. […]
(§1) To determine surface expression of CD4 (Helper T cells), CD8 (killer T cells), CD25 (activated helper T cells and regulatory T cells), CD45 (macrophage and microglial cells) and F4/80 (macrophage and microglial cells) 5×10^5 cells/100 μL FACS buffer (PBS, 0.02% sodium azide [Sigma-Aldrich] and 2% bovine serum albumin) were incubated with appropriate antibodies from BD biosciences, Mountain View, Calif. […] Expression was analyzed (FACSCalibur with CellQuest software; BD Biosciences, Mountain View, Calif.).

Assay [2] has as its system CD4+/CD25+ Treg cells. In words: Treg cell frequency in lymphatic organs of SNL rats (flow cytometry). Conditions: SNL Rat Model of Allodynic Neuropathic Pain, FIG. 2. Here is the method: The SNL (or Chung) Model in the rat is an accepted standard animal model of neuropathic pain and is thought to mimic the human causalgia condition with respect to symptoms (guarding behavior, mechanical allodynia) and alleviation by pharmacological agents. […] The SNL Model is performed by tightly ligating the L-5 and L-6 spinal nerves, which produces tactile allodynia or sensitivity to light touch as described (Kim and Chung, 1992). Male sprague-dawley rats (100-120 grams; Charles River, Wilmington, Mass.) were anesthetized through inhalation of an isoflurane/oxygen mix. The surgical site was shaved and prepared with betadine. An incision was made from the thoracic vertebra XIII toward down the sacrum. The muscle was separated from the spinal vertebra (left side) at the L4-S2 levels. […]
as §1
(In general: In flow cytometry, cells or beads pass a laser one at a time.)

The subject of assay [3] is SNL Rat Model of Allodynic Neuropathic Pain. In words: Allodynia reversal (Von Frey) in the SNL Rat Model of Allodynic Neuropathic Pain. Conditions: for % Allodynia Reversal 24 hr post / % Allodynia Reversal 7 day post / % Allodynia Reversal 23 day post: SNL rats; for blockade of the (long-term) analgesic effect by the immunosuppressant FK506: spinal nerve ligation model, result in words. Here is the method:
The SNL (or Chung) Model in the rat is an accepted standard animal model of neuropathic pain and is thought to mimic the human causalgia condition with respect to symptoms (guarding behavior, mechanical allodynia) and alleviation by pharmacological agents. […] The SNL Model is performed by tightly ligating the L-5 and L-6 spinal nerves, which produces tactile allodynia or sensitivity to light touch as described (Kim and Chung, 1992). Male sprague-dawley rats (100-120 grams; Charles River, Wilmington, Mass.) were anesthetized through inhalation of an isoflurane/oxygen mix. The surgical site was shaved and prepared with betadine. An incision was made from the thoracic vertebra XIII toward down the sacrum. The muscle was separated from the spinal vertebra (left side) at the L4-S2 levels. The L6 vertebra was located and then the transverse process was carefully removed with a small rongeur to visually identify the L4-L6 spinal nerves. The L5 and L6 spinal nerves was isolated and tightly ligated with 6-0 silk thread. A complete homeostasis was confirmed and then the wound was sutured. The duration of the surgery was approximately 20 minutes. A small amount of antibiotic ointment was applied to the incised area and the animals were transferred to a plastic recovery cage under a regulated heat-temperature lamp. Animals were not given any topical or local anesthetics post-operatively because they will inhibit the development of the pain syndrome, which is the phenomenon to be studied.
The allodynia is quantitated in the animals having received the Chung surgery by stimulation with a series of 8 Von Frey hairs on the mid planter area of the surgical hind paw in the up-down manner as described in the literature (Dixon, 1980). Von Frey hairs are applied in an up-down manner depending on the response until the 50% threshold is established. The Von Frey hairs are applied to the plantar surface of the surgical paw with just enough force to bend them. A positive response is recorded if the paw is sharply withdrawn. Eight Von Frey hairs were used 3.61, 3.84, 4.08, 4.31, 4.56, 4.74, 4.93 and 5.18 yielding a gram force of 0.25-15 grams.
[formula] • Mean±SEM: • Mean=average of allodynia reversals • SEM=STDEV/SQ ROOT of n
Testing with compounds is done 2-3 weeks after surgery to establish stable allodynia. In all experimental animals, baseline measurements were taken prior to drug administration and then at 24 hours and 5-23 days post dosing with Alzet osmotic minipump. The investigator was blinded to the identity of the drug groups. The % allodynia reversal is calculated as: [(Postdrug threshold−Predrug threshold)/(15-Predrug threshold)]×100.
Compound B was formulated in 50% DMSO (dimethyl sulfoxide; Sigma, St. Louis, Mo.). This solution was dosed orally TID at a dose of 0.3 or 1 mg/kg. For dosing in the osmotic minipumps (Model 1007D, Alzet Corp., Palo Alto, Calif.) the compound was loaded onto the pumps set to deliver a final dose of either 1 or 3 mg/kg/day. The vehicle for these studies is 50% DMSO.
Compound C was formulated first in 100% DMSO (Sigma, St. Louis, Mo.), then diluted down in 30% DMSO for a 10 mg/ml solution; 15% DMSO for a 3 mg/ml solution and further dilutions were made in water. The compound was dosed orally TID at a dose of either 0.3 or 1 mg/kg for a total daily dose of 1 or 3 mg/kg/day, respectively.

[4] abbreviates: 1 mg/kg/day osmotic minipump for 7 days + 3 mg/kg FK506 BID SC for 5 days.
[5] abbreviates: 1 mg/kg/day osmotic minipump, treatment for 7 days.
The mark [6] stands for this setting: 1 mg/kg/day TID oral for 5 days + 3 mg/kg FK506 BID SC for 5 days, mean % MPE ± SEM.
Where [7] appears, read: 1 mg/kg/day TID oral for 5 days, mean % MPE ± SEM.

Molecules are shown by their SMILES.

Take `CCC1=CC(Cc2c[nH]cn2)CCC1` (centres unmarked) [Compound B]: in assay [1] (flow cytometry at the end of the study, FIG. 5), the “presence of immune cells in the CNS” value is reported as “significantly reduced”. In addition, the Treg number result in assay [1] (mice immunized with proteolipid protein, 3 mg/kg/day by osmotic minipump, FIG. 3) is “selectively boosted”. Besides, the “frequency of spleen CD4+ T cells that are CD4+/CD25+ Treg cells” value in assay [2] is “Sustained increase”. In assay [3] (setting [4]), the “% Allodynia Reversal 24 hr post” value turned out to be 57.06 ± 14.52 % and the “% Allodynia Reversal 7 day post” value is on record as 16.43 ± 19.42%. For the same molecule, in assay [3] (setting [5]), the “% Allodynia Reversal 24 hr post” value came to 78.50 ± 7.85 % and the “% Allodynia Reversal 7 day post” value worked out at 73.35 ± 11.95 %. For the same molecule, the “blockade of the (long-term) analgesic effect by the immunosuppressant FK506” value in assay [3] is “blockable”.

`Clc1cccc(CNC2=NCCN2)c1Cl` [Compound C]: the “frequency of regulatory T cells (CD4+CD25hiFoxP3+) in the spinal cord” value in assay [1] (flow cytometry on day 37, FIG. 7) was “increased”. Besides, in assay [3] (setting [6]), the “% Allodynia Reversal 24 hr post” value is reported as 49 ± 13.15 % and the “% Allodynia Reversal 23 day post” value is 21.82 ± 4.26%. For the same molecule, in assay [3] (setting [7]), the “% Allodynia Reversal 24 hr post” value is recorded as 66.06 ± 10.71 % and the “% Allodynia Reversal 23 day post” value is given as 81.48 ± 6.00 %. In addition, the “blockade of the (long-term) analgesic effect by the immunosuppressant FK506” value in assay [3] is recorded as “able to block”.
